molecular target: T1, TRPC5 (Homo sapiens, UniProt Q9UL62); experiment: TRPC5 Fluorescence Assay - FLIPR format (HEK-TREx hTRPC5, Riluzole stimulation); format: cell-based; details: Table 9, read-out: hTRPCS-FLIPR IC50
T1 construct: expressed in transfected cells; host or cells: HEK 293
T1 sequence (Q9UL62 1-973): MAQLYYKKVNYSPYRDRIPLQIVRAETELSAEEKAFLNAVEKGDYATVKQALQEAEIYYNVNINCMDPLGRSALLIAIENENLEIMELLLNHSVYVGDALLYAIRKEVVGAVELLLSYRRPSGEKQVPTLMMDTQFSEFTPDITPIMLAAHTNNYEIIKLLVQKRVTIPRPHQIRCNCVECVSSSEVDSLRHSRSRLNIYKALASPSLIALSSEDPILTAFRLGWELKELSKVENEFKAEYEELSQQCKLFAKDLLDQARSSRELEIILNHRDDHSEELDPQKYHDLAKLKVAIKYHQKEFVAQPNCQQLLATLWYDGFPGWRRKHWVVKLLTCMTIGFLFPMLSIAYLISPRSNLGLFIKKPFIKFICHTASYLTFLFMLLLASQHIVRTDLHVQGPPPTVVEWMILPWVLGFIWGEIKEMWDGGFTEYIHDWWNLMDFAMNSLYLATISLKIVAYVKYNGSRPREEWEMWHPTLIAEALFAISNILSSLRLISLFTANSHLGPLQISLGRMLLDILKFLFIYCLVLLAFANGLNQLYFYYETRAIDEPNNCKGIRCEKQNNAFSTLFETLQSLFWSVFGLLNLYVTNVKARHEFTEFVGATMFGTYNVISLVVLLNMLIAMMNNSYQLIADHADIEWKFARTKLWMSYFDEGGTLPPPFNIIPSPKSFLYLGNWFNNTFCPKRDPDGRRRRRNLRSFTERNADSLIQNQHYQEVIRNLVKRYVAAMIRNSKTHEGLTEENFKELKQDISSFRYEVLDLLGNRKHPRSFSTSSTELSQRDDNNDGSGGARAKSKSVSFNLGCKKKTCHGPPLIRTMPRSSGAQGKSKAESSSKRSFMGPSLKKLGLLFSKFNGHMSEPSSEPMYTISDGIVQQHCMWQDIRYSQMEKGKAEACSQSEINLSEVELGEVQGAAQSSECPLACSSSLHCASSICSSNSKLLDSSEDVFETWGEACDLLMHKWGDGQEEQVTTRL
Procedure, shortened: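 Tetracycline-induced HEK-TREx hTRPC5 cells loaded with Fluo-4 AM in EBSS were preincubated 5 min with compound (final 30 μM to 0.0001 μM, 0.3% DMSO), then stimulated with 30 μM Riluzole. Peak fluorescence over 5 min gave % inhibition, normalised to a 1 μM reference inhibitor.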

| IC50 | Structure (SMILES) |
| --- | --- |
| 0.01 to 1000 nM | C[C@@H](c1ccccc1C(F)(F)F)N1CCN(c2cn[nH]c(=O)c2Cl)CC1=O [drawing 1044] |
| 0.01 to 1000 nM | C[C@H](c1ccc(F)cc1C(F)(F)F)N1C[C@@H](C)N(c2cn[nH]c(=O)c2Cl)CC1=O [drawing 1048] |
| 0.01 to 1000 nM | C[C@@H](c1ccc(F)cc1C(F)(F)F)N1CCN(c2cn[nH]c(=O)c2Cl)CC1=O [drawing 1049] |

same assay, conditions: Table 10, read-out: TRPCS-FLIPR IC50

| IC50 | Structure (SMILES) |
| --- | --- |
| 0.01 to 1000 nM | [2H]c1nc2c(n1Cc1ccccc1C(F)(F)F)CCN(c1cn[nH]c(=O)c1Cl)C2 |
| 0.01 to 1000 nM | C[C@H](c1ccc(F)cc1C(F)F)n1nc(C(N)=O)c2c1CCN(c1cn[nH]c(=O)c1Cl)C2 |
| 0.01 to 1000 nM | COCc1ccccc1Cn1cnc2c1CCN(c1cn[nH]c(=O)c1Cl)C2 [drawing 1053] |
| 0.01 to 1000 nM | COCc1ncccc1Cn1cnc2c1CCN(c1cn[nH]c(=O)c1Cl)C2 [drawing 1065] |
| 0.01 to 1000 nM | C[C@@H]1Cc2c(nnn2[C@@H](C)c2ccccc2C(F)(F)F)CN1c1cn[nH]c(=O)c1Cl [drawing 1071] |
| 0.01 to 1000 nM | C[C@H](c1ccccc1C(F)(F)F)n1nnc2c1CCN(c1cn[nH]c(=O)c1Cl)[C@H]2C [drawing 1078] |
| 0.01 to 1000 nM | CCS(=O)(=O)c1nc2c(n1Cc1ccccc1C(F)(F)F)CCN(c1cn[nH]c(=O)c1Cl)C2 [drawing 1079] |
| 0.01 to 1000 nM | O=c1[nH]ncc(N2CCc3c(c(=O)[nH]n3Cc3ccccc3C(F)(F)F)C2)c1Cl [drawing 1081] |
| 0.01 to 1000 nM | C[C@@H]1Cc2c(nnn2[C@@H](C)c2ccc(F)cc2C(F)(F)F)CN1c1cn[nH]c(=O)c1Cl [drawing 1085] |
| 0.01 to 1000 nM | C[C@H](c1ccc(F)cc1C(F)(F)F)n1nnc2c1CCN(c1cn[nH]c(=O)c1Cl)[C@H]2C [drawing 1092] |
| 0.01 to 1000 nM | C[C@H](c1ccccc1C(F)F)n1nnc2c1CCN(c1cn[nH]c(=O)c1Cl)C2 [drawing 1100] |
| 0.01 to 1000 nM | C[C@@H](c1ccccc1C(F)F)n1nnc2c1CCN(c1cn[nH]c(=O)c1Cl)C2 [drawing 1106] |
| 0.01 to 1000 nM | C[C@@H](c1ccc(F)cc1C(F)F)n1nnc2c1CCN(c1cn[nH]c(=O)c1Cl)C2 [drawing 1107] |
| 0.01 to 1000 nM | CNC(=O)c1nn([C@H](C)c2ccccc2C(F)F)c2c1CN(c1cn[nH]c(=O)c1Cl)CC2 [drawing 1113] |
| 0.01 to 1000 nM | CC(c1ccc(F)cc1C(F)F)n1nc(C(N)=O)c2c1CCN(c1cn[nH]c(=O)c1Cl)C2 (centres unmarked) [drawing 1114] |
| 0.01 to 1000 nM | CNC(=O)c1nn(Cc2ccc(F)cc2C(F)F)c2c1CN(c1cn[nH]c(=O)c1Cl)CC2 [drawing 1117] |

| IC50 | Structure (SMILES) |
| --- | --- |
| 0.01 to 1000 nM | C[C@@H]1Cc2c(c(C(N)=O)nn2Cc2ccccc2C(F)(F)F)CN1c1cn[nH]c(=O)c1Cl [drawing 1118] |
| 0.01 to 1000 nM | COC[C@H](c1ccccc1C(F)(F)F)n1cnc2c1CCN(c1cn[nH]c(=O)c1Cl)C2 [drawing 1120] |
| 0.01 to 1000 nM | C[C@H](c1ccccc1C(F)(F)F)n1nc(C(N)=O)c2c1CCN(c1cn[nH]c(=O)c1Cl)C2 [drawing 1123] |
| 0.01 to 1000 nM | C[C@@H](c1cccnc1CC(F)F)n1nnc2c1CCN(c1cn[nH]c(=O)c1Cl)C2 [drawing 1125] |
| 0.01 to 1000 nM | O=c1[nH]ncc(N2CCc3c(nnn3Cc3ccc(F)cc3CC(F)(F)F)C2)c1Cl [drawing 1131] |
| 0.01 to 1000 nM | C[C@H](c1ccccc1Cl)n1nnc2c1CCN(c1cn[nH]c(=O)c1Cl)C2 [drawing 1133] |
| 0.01 to 1000 nM | CNC(=O)c1nc2c(n1Cc1ccccc1C(F)(F)F)CCN(c1cn[nH]c(=O)c1Cl)C2 [drawing 1134] |
| 0.01 to 1000 nM | NC(=O)c1nc2c(n1Cc1ccccc1C(F)(F)F)CCN(c1cn[nH]c(=O)c1Cl)C2 [drawing 1135] |
| 0.01 to 1000 nM | O=c1[nH]ncc(N2CCc3c(ncn3Cc3ccc(F)cc3Cl)C2)c1Cl [drawing 1136] |
| 0.01 to 1000 nM | O=c1[nH]ncc(N2CCc3c(ncn3Cc3ccccc3Cl)C2)c1Cl [drawing 1139] |
| 0.01 to 1000 nM | C[C@@H](c1ccccc1Cl)n1nnc2c1CCN(c1cn[nH]c(=O)c1Cl)C2 [drawing 1140] |
| 0.01 to 1000 nM | CS(=O)(=O)c1nc2c(n1Cc1ccccc1C(F)(F)F)CCN(c1cn[nH]c(=O)c1Cl)C2 [drawing 1142] |
| 0.01 to 1000 nM | CN(c1ncc2c(n1)CN(c1cn[nH]c(=O)c1Cl)C2)c1ccc(F)cc1Cl [drawing 1144] |
| 0.01 to 1000 nM | CCN(c1ncc2c(n1)CN(c1cn[nH]c(=O)c1Cl)C2)c1ccccc1Cl [drawing 1148] |
| 0.01 to 1000 nM | O=c1[nH]ncc(N2CCc3c(Cc4ccc(F)cc4C(F)(F)F)n[nH]c3C2)c1Cl [drawing 1153] |
| 0.01 to 1000 nM | CCc1ncccc1N(C)c1ncc2c(n1)CN(c1cn[nH]c(=O)c1Cl)C2 [drawing 1154] |

From US20260184708A1, “PYRIDAZINONES AND METHODS OF USE THEREOF” (GFB (ABC), LLC, priority 2017, published 2026)
